pEC50: −log10 of the molar value. Each block holds one compound with its values, some of them ahead of it.
Key:
[1] = biological target: T1, PPARG/RXRA LBD heterodimer (Homo sapiens (Human), UniProt P37231); assay: PPARG-NCOR1 recruitment assay (TR-FRET); format: biochemical; conditions: for pEC50: TR-FRET, biotinylated NCOR1 ID2 peptide, 80 nM Rosiglitazone, 3 hours, read-out: PPARG-NCOR recruitment assay EC50; for % NCOR recruitment relative to T907: maximal extent, T0070907 defined as 100%, DMSO 0%
T1 sequence (P37231 whole entry, looked up, the tested form may be a part): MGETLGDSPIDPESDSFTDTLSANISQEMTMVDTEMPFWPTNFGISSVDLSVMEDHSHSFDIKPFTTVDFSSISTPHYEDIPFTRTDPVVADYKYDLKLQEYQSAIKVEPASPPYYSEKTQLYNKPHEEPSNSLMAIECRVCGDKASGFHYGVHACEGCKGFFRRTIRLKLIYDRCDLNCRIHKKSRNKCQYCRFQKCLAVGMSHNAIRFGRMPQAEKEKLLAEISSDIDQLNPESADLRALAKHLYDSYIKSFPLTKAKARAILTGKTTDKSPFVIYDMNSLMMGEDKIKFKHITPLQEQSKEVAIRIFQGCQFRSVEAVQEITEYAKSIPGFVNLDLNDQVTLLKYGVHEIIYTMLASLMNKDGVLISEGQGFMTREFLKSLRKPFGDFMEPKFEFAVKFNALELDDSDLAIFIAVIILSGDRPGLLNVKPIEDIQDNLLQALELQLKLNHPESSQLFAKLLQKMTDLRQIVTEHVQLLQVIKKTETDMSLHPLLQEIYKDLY
T1 sequence (P19793 whole entry partner, looked up, the tested form may be a part): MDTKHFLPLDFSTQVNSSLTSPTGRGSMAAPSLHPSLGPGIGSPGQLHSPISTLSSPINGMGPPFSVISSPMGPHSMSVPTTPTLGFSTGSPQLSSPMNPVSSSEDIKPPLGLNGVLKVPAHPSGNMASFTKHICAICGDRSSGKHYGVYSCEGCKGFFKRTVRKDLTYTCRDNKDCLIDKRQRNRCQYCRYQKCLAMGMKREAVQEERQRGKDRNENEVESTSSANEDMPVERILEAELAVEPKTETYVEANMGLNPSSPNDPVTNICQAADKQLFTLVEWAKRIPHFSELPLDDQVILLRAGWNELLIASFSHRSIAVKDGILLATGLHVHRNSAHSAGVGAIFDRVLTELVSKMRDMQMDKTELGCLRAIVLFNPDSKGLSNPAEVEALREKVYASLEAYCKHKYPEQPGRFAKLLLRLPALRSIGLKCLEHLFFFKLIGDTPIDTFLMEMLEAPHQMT
Experimental: Compound potency (EC50) and maximal extent of NCOR1 recruitment to PPARG were assessed a TR-FRET binding assay measuring association of a biotinylated NCOR1 ID2 peptide (Biotin-[…]-amide) to PPARG/RXRA LBD heterodimer. Specifically, a 20 microliters of TR-FRET master mix consisting of 2 nM WT PPARG LBD (e. coli expressed, His-TEV-Q203-Y477; Uniprot ID P37231-2), 2 nM WT RXRA LBD or mutant S427F RXRA LBD (e. coli expressed, Flag-TEV-E228-T462; […]. Mixtures were incubated for 3 hours and read in an EnVision plate reader (Perkin Elmer) with Ex/Em 615/665. To determine the potency (EC50) and extent of NCOR1 recruitment, TR-FRET ratios were normalized to the average ratio of DMSO control wells (0%) and to the average maximum ratio for positive control compound (T0070907 (2-chloro-5-nitro-N-4-pyridinyl-benzamide); defined as 100%) in CDD Vault and analyzed using the Levenberg-Marquardt algorithm.

[2] = biological target: T1, PPARG/RXRA LBD heterodimer; assay: PPARG-MED1 blockade assay (TR-FRET); format: biochemical; conditions: for pEC50: TR-FRET, biotinylated MED1 LxxLL peptide, 80 nM Rosiglitazone, 3 hours, IC50; for % MED1 blockade relative to GW9662: maximal extent, GW9662 defined as 100%, DMSO 0%
Experimental: Compound potency (IC50) and maximal extent of MED1 repulsion to PPARG were assessed a TR-FRET binding assay measuring association of a biotinylated MED1 LxxLL peptide (Biotin-[…]-amide) to PPARG/RXRA LBD heterodimer. Specifically, a 20 microliters of TR-FRET master mix consisting of 2 nM WT PPARG LBD (e. coli expressed, His-TEV-Q203-Y477; Uniprot ID P37231-2), 2 nM WT RXRA LBD (e. coli expressed, Flag-TEV-E228-T462; […]. Mixtures were incubated for 3 hours and read in an EnVision plate reader (Perkin Elmer) with Ex/Em 615/665. To determine the potency (IC50) and extent of MED1 repulsion, TR-FRET ratios were normalized to the average ratio of DMSO control wells (0%) and to the average minimum ratio for positive control compound (GW9662 (2-chloro-5-nitrobenzanilide); defined as 100%) in CDD Vault and analyzed using the Levenberg-Marquardt algorithm.

[3] = system: HT1197 (RXRA S427F mutation) cells; assay: Bladder cancer pharmacodynamic assay, HT1197 cell assay (qPCR of PPARG target gene ANGPTL4); format: cell-based; conditions: Homo sapiens; for inhibition at 0.1 µM: 100 nM compound, 24 hours, relative to DMSO control; for pEC50: 24 hours treatment, qPCR
Experimental: 5637 (PPARG amplified) and HT1197 (RXRA S427F mutation) cells were used for assessment of modulation of PPARG target genes using quantitative PCR. Cells were treated for 24 hours with PPARG inverse agonists prior to analysis of FABP4 (IDT, Cat: Hs.PT 58.20106818) and ANGPTL4 (IDT, Cat: Hs.PT 58.25480012) expression, with expression of the housekeeping gene TBP (IDT, Cat: Hs.PT 58v.39858774) used to normalize expression across samples. Quantitative PCR was performed using an ABI QuantStudio 7 Flex Reaction system. Data were analyzed and reported relative to DMSO control using the comparative Ct method […].

SMILES: CS(=O)(=O)c1ccc(C#N)cc1-c1cc(=O)c2c(Oc3ccc(Cl)cc3)cc(F)cc2[nH]1 [Example 1, 3-(5-(4-Chlorophenoxy)-7-Fluoro-4-Oxo-1,4-Dihydroquinolin-2-Yl)-4-(Methylsulfonyl)Benzonitrile]
- pEC50 [1]: 6.00 to 7.00
- % NCOR recruitment relative to T907 [1]: A (A: >100% (>the control compound, T907))
- pEC50 [2]: 6.00 to 7.00
- % MED1 blockade relative to GW9662 [2]: A (A: >100% (>the control compound, GW9662))
- inhibition at 0.1 µM [3]: 85%
- pEC50 [3]: 9.10

SMILES: N#Cc1ccc(Cl)c(-c2cc(=O)c3c(Oc4ccc(Cl)cc4)cc(F)cc3[nH]2)c1 [Example 2, 4-Chloro-3-(5-(4-Chlorophenoxy)-7-Fluoro-4-Oxo-1,4-Dihydroquinolin-2-Yl)Benzonitrile]
- pEC50 [1]: 6.00 to 7.00
- % NCOR recruitment relative to T907 [1]: A (A: >100% (>the control compound, T907))
- pEC50 [2]: 6.00 to 7.00
- % MED1 blockade relative to GW9662 [2]: B (B: <100% (<the control compound, GW9662))
- inhibition at 0.1 µM [3]: 91%

SMILES: Cn1cc(Oc2cc(F)cc3[nH]c(-c4cc(C#N)ccc4S(C)(=O)=O)cc(=O)c23)cn1 [Example 3, 3-(7-Fluoro-5-((1-Methyl-1H-Pyrazol-4-Yl)Oxy)-4-Oxo-1,4-Dihydroquinolin-2-Yl)-4-(Methylsulfonyl)Benzonitrile]
- pEC50 [1]: 5.00 to 6.00
- % NCOR recruitment relative to T907 [1]: A (A: >100% (>the control compound, T907))
- pEC50 [2]: 5.00 to 6.00
- % MED1 blockade relative to GW9662 [2]: A (A: >100% (>the control compound, GW9662))
- inhibition at 0.1 µM [3]: 82%

SMILES: Cn1cc(Oc2cc(Cl)cc3[nH]c(-c4cc(C#N)ccc4S(C)(=O)=O)cc(=O)c23)cn1 [Example 4, 3-(7-Chloro-5-((1-Methyl-1H-Pyrazol-4-Yl)Oxy)-4-Oxo-1,4-Dihydroquinolin-2-Yl)-4-(Methylsulfonyl)Benzonitrile]
- pEC50 [1]: 6.00 to 7.00
- % NCOR recruitment relative to T907 [1]: A (A: >100% (>the control compound, T907))
- pEC50 [2]: 6.00 to 7.00
- % MED1 blockade relative to GW9662 [2]: A (A: >100% (>the control compound, GW9662))
- inhibition at 0.1 µM [3]: 86%
- pEC50 [3]: 9.46

- pEC50 [1]: 6.00 to 7.00
- pEC50 [2]: 6.00 to 7.00
SMILES: N#Cc1ccc(Cl)c(-c2cc(=O)c3c(Oc4ccc(Cl)nc4)cc(F)cc3[nH]2)c1 [Example 5, 4-Chloro-3-(5-((6-Chloropyridin-3-Yl)Oxy)-7-Fluoro-4-Oxo-1,4-Dihydroquinolin-2-Yl)Benzonitrile]
- % NCOR recruitment relative to T907 [1]: A (A: >100% (>the control compound, T907))
- % MED1 blockade relative to GW9662 [2]: A (A: >100% (>the control compound, GW9662))
- inhibition at 0.1 µM [3]: 77%

SMILES: N#Cc1ccc(Cl)c(-c2cc(=O)c3c(OCc4ccc(Cl)cc4)cc(F)cc3[nH]2)c1 [Example 6, 4-Chloro-3-(5-((4-Chlorobenzyl)Oxy)-7-Fluoro-4-Oxo-1,4-Dihydroquinolin-2-Yl)Benzonitrile]
- pEC50 [1]: 6.00 to 7.00
- % NCOR recruitment relative to T907 [1]: A (A: >100% (>the control compound, T907))
- pEC50 [2]: 6.00 to 7.00
- % MED1 blockade relative to GW9662 [2]: A (A: >100% (>the control compound, GW9662))
- inhibition at 0.1 µM [3]: 25%

SMILES: CS(=O)(=O)c1ccc(C#N)cc1-c1cc(=O)c2c(Cc3ccc(Cl)cc3)cc(F)cc2[nH]1 [Example 7, 3-(5-(4-Chlorobenzyl)-7-Fluoro-4-Oxo-1,4-Dihydroquinolin-2-Yl)-4-(Methylsulfonyl)Benzonitrile]
- pEC50 [1]: 7.00 to 8.00
- % NCOR recruitment relative to T907 [1]: A (A: >100% (>the control compound, T907))
- pEC50 [2]: 6.00 to 7.00
- % MED1 blockade relative to GW9662 [2]: A (A: >100% (>the control compound, GW9662))
- inhibition at 0.1 µM [3]: 90%

Source: US20250186425A1, “PPARG INVERSE AGONISTS AND USES THEREOF” (Flare Therapeutics Inc., priority 2022, published 2025)
